Species on record: Rattus norvegicus
Assay: Open TG-GATES - Regimen: Daily Repeat
Type: toxicity, organism-based, Sprague-Dawley
Set-up: regimen Daily Repeat, gender Male, age 6 weeks
Conditions: in vivo, po, 50 mg/kg, route gavage, dose level Low; for APTT / Bas / Eos / Fbg / Hb / Ht / Lym / MCH / MCHC / MCV / Mono / Neu / PT / Plat / RBC / Ret / WBC: tissue Blood; for KIDNEY_L / KIDNEY_R / KIDNEY_TOTAL: tissue Kidney; for LIVER: tissue Liver; for A/G / ALP / ALT / AST / BUN / CRE / Ca / Cl / DBIL / GLC / IP / K / LDH / Na / PL / RALB / TBIL / TC / TG / TP / gamma-GTP: tissue Plasma

## CC(=O)Oc1cc(C(C)C)c(OCCN(C)C)cc1C [MOXISYLYTE]
72 h, time 3 day
  TERMINAL_BW: 225.1 g
  APTT: 21.1 s
  Bas: 0%
  Eos: 1%
  Fbg: 329.8 mg/dL
  Hb: 13.7 g/dL
  Ht: 39.1%
  Lym: 80.6%
  MCH: 21.5 pg
  MCHC: 35%
  MCV: 61.5 fL
  Mono: 2.2%
  Neu: 14.6%
  PT: 16.2 s
  Plat: 126.9 x10_4/uL
  RBC: 635.6 x10_4/ul
  Ret: 6%
  WBC: 99.3 x10_2/uL
  KIDNEY_L: 1 g
  KIDNEY_R: 1 g
  KIDNEY_TOTAL: 1.9 g
  LIVER: 10.4 g
  A/G: 1.2
  ALP: 1826.8 IU/L
  ALT: 42.8 IU/L
  AST: 72.2 IU/L
  BUN: 16.2 mg/dL
  CRE: 0.2 mg/dL
  Ca: 11 mg/dL
  Cl: 106.4 meq/L
  DBIL: 0.004 mg/dL
  GLC: 178.8 mg/dL
  IP: 7.4 mg/dL
  K: 4.5 meq/L
  LDH: 242.8 IU/L
  Na: 141.4 meq/L
  PL: 158.8 mg/dL
  RALB: 3.1 g/dL
  TBIL: 0.004 mg/dL
  TC: 78.2 mg/dL
  TG: 108.8 mg/dL
  TP: 5.7 g/dL
  gamma-GTP: 1.2 IU/L
[…], time 7 day
  TERMINAL_BW: 248.6 g
  APTT: 21.8 s
  Bas: 0%
  Eos: 0.6%
  Fbg: 312.6 mg/dL
  Hb: 13.7 g/dL
  Ht: 39.2%
  Lym: 79.6%
  MCH: 20.9 pg
  MCHC: 35.1%
  MCV: 59.5 fL
  Mono: 2.2%
  Neu: 16.8%
  PT: 15.9 s
  Plat: 122.1 x10_4/uL
  RBC: 659 x10_4/ul
  Ret: 4.9%
  WBC: 88.2 x10_2/uL
  KIDNEY_L: 1.1 g
  KIDNEY_R: 1.1 g
  KIDNEY_TOTAL: 2.2 g
  LIVER: 11.2 g
  A/G: 1.2
  ALP: 1475.2 IU/L
  ALT: 45 IU/L
  AST: 82.6 IU/L
  BUN: 16.6 mg/dL
  CRE: 0.2 mg/dL
  Ca: 10.6 mg/dL
  Cl: 106.6 meq/L
  DBIL: 0 mg/dL
  GLC: 179.4 mg/dL
  IP: 6.8 mg/dL
  K: 4.1 meq/L
  LDH: 202 IU/L
  Na: 141.6 meq/L
  PL: 146.6 mg/dL
  RALB: 3 g/dL
  TBIL: 0 mg/dL
  TC: 70.6 mg/dL
  TG: 144 mg/dL
  TP: 5.5 g/dL
  gamma-GTP: 1.2 IU/L
[…], time 14 day
  TERMINAL_BW: 317.3 g
  APTT: 20.8 s
  Bas: 0%
  Eos: 1%
  Fbg: 308.8 mg/dL
  Hb: 14.2 g/dL
  Ht: 39.3%
  Lym: 77.8%
  MCH: 20.7 pg
  MCHC: 36.2%
  MCV: 57.2 fL
  Mono: 2.4%
  Neu: 18%
  PT: 16.1 s
  Plat: 108.1 x10_4/uL
  RBC: 686.8 x10_4/ul
  Ret: 5.1%
  WBC: 113.2 x10_2/uL
  KIDNEY_L: 1.3 g
  KIDNEY_R: 1.2 g
  KIDNEY_TOTAL: 2.5 g
  LIVER: 14 g
  A/G: 1.2
  ALP: 1349.4 IU/L
  ALT: 45.8 IU/L
  AST: 77.8 IU/L
  BUN: 19.8 mg/dL
  CRE: 0.2 mg/dL
  Ca: 10.8 mg/dL
  Cl: 107 meq/L
  DBIL: 0 mg/dL
  GLC: 186.6 mg/dL
  IP: 6.3 mg/dL
  K: 4.4 meq/L
  LDH: 256 IU/L
  Na: 141 meq/L
  PL: 156 mg/dL
  RALB: 3.2 g/dL
  TBIL: 0.002 mg/dL
  TC: 73.2 mg/dL
  TG: 184.6 mg/dL
  TP: 5.8 g/dL
  gamma-GTP: 1.4 IU/L
[…], time 28 day
  TERMINAL_BW: 361 g
  APTT: 24.3 s
  Bas: 0%
  Eos: 1.2%
  Fbg: 324.8 mg/dL
  Hb: 14.9 g/dL
  Ht: 41.8%
  Lym: 84%
  MCH: 19.3 pg
  MCHC: 35.6%
  MCV: 54.3 fL
  Mono: 2%
  Neu: 12%
  PT: 16 s
  Plat: 101.5 x10_4/uL
  RBC: 770 x10_4/ul
  Ret: 2.5%
  WBC: 142.9 x10_2/uL
  KIDNEY_L: 1.4 g
  KIDNEY_R: 1.4 g
  KIDNEY_TOTAL: 2.8 g
  LIVER: 14.8 g
  A/G: 1
  ALP: 1078.4 IU/L
  ALT: 40.2 IU/L
  AST: 66.8 IU/L
  BUN: 17 mg/dL
  CRE: 0.2 mg/dL
  Ca: 10.4 mg/dL
  Cl: 106.6 meq/L
  DBIL: 0.002 mg/dL
  GLC: 184.4 mg/dL
  IP: 6.4 mg/dL
  K: 4.2 meq/L
  LDH: 147 IU/L
  Na: 142 meq/L
  PL: 151.2 mg/dL
  RALB: 3 g/dL
  TBIL: 0.002 mg/dL
  TC: 70 mg/dL
  TG: 170.4 mg/dL
  TP: 6 g/dL
  gamma-GTP: 2 IU/L

— ChEMBL document CHEMBL3885861, “Open TG-GATES”
